These results are taken from US11026972B2, “Methods for generating macrophages with enhanced cancer phagocytosis” (Georgia State University Research Foundation, Inc., priority 2016, dated 2021).

Assay [1] deals with PEMs. The assay can be described thus: Activated PEM phagocytosis toward RBCs in the presence of antibodies/inhibitors against phagocytic receptors. The format is cell-based, mouse. The settings on record: antibodies 10 μg/mL; BLT1 5 μM; laminarin 100 μg/mL; heparin 40 U/mL. Here is the method: FIGS. 6A-6D include data related to our investigation of possible phagocytic receptors on macrophages for phagocytosing healthy self-cells. […] PEMs, with or without (ctl.) treatment with LPS, IL-17, IL-6, or PMA, were labeled for cell surface LRP1 and CRT followed by FACS. […] Activated PEM phagocytosis toward RBCs was tested in the presence of antibodies against SR-A, Fc receptor Cd16/32 (10 μg/mL of each), inhibitors against SR-B (BLT1, 5 μM), dectin (laminarin, 100 μg/mL), complement (heparin, 40 U/mL), and antibody against Cd11b (10 μg/mL). […] Data presented in each panel represent at least three independent experiments with n≥4, if applicable.
Ex vivo macrophage phagocytosis: Mouse spleens were harvested and minced in cold HBSS followed by passing through nylon meshes. The spleen cells in suspensions were collected by centrifugation followed by washing. After lysis of RBC, splenocytes were plated in cell culture dishes in DMEM with 10% FBS and cultured for 2 h followed by removal of non-adherent cells. The adherent cells, ˜70% being macrophages as determined by anti-F4/80 staining, were tested for phagocytosis. For phagocytosis of RBC or other tissue cells, targeted cells were labeled with CFSE prior to addition into the macrophage-containing wells. Macrophages and target cells, at a ratio of 1:5-10 for RBC or 1:1-2 for other cells, were co-incubated for 30 min at 37° C. followed by gently washing. Macrophage phagocytosis of target cells was then analyzed by fluorescence microscopy and/or by FACS. […] Alternatively, the freshly isolated splenocytes in suspension were incubated with CFSE-labeled RBC and other phagocytic targets for 30 min at 37° C. Macrophage phagocytosis was then determined by FACS after labeling macrophages with anti-F4/80. To test phagocytosis of apoptotic cells, B16 cells were irradiated by UV for 150 seconds at 50 J/m^2 strength. Apoptosis was analyzed at 2, 4, 6, 8 and 18 h post UV irradiation by labeling of the cells with anti-phosphatidylserine (PS) antibody (data not shown) or FITC-conjugated annexin V (data not shown). Cells that were confirmed to be apoptotic were trypsinized, labeled with CFSE, and then co-incubated with macrophages for 30 min at 37° C. After gentle washing, phagocytosis was analyzed by fluorescence microscopy and/or FACS. To test phagocytosis of bacteria and the fungal product zymosan, AlexaFluor-conjugated E.coli strain […] (2 μl suspension, ˜2 μg) or zymosan bioparticles (1 μl suspension, ˜2 μg) (both from Invitrogen) were incubated with macrophages for 30 min followed by washing and analyses. Similar procedures were performed to test phagocytosis of macrophages from various sources. […]

Assay [2] has as its system SIRPα^−/− and CD47^−/− mice. The assay can be described thus: Acute anemia and splenomegaly in mice deficient of CD47-SIRPα-mediated inhibition under inflammatory conditions. Format: in vivo, mouse. As to conditions: SIRPα^−/− and CD47^−/− mice; zymosan 3 times every other day; IL-6 2×10 μg/kg i.v.; LPS 0.25 mg/kg i.p.; CFA s.c. From the text:
FIGS. 1A-1K illustrate our assessment of acute anemia in mice deficient of CD47-SIRPα-mediated inhibition under inflammatory conditions. FIG. 1A includes a schematic drawing of a wild type (WT) and targeted allele of SIRPα (“SIRPα”) and data related to the generation of SIRPα “knock out” (KO) mice. […] Western blot (WB) analysis confirmed the depletion of SIRPα (˜120 kDa) protein in bone marrow leukocytes from SIRPα^−/− mice. FIG. 1B includes a photograph of intestinal tissue and a line graph charting the change in body weight of mice in which colitis had been induced by treatment with 1% or 2% DSS. […] FIGS. 1C and 1D include data related to acute anemia and splenomegaly developed in SIRPα^−/− mice with colitis. WT mice and SIRPα^−/− mice treated with DSS (2% DSS for WT and 1% DSS for SIRPα^−/−) for 10 days were analyzed for the presence of […] (FIG. 1C) and the content of hemoglobin in peripheral blood (FIG. 1D). FIG. 1E includes a panel of photomicrographs in which hematoxylin and eosin (H&E) was used to stain sections of spleens from WT and SIRPα^−/− mice treated with 2% and 1% DSS for 10 days. The bar graph of FIG. 1E illustrates the hemoglobin content in the spleens of WT and SIRPα^−/− mice treated with water or DSS. FIG. 1F is a pair of line graphs showing the time course over which anemia developed in SIRPα^−/− mice when colitis was induced with DSS and the levels of IL-17 in the serum over that same period of time. FIG. 1G is a diagram showing that IL-17 neutralization ameliorates anemia and splenomegaly in SIRPα^−/− mice with colitis. An anti-IL-17 antibody (10 μg, i.v.) was given on days 6 and 8 (arrows) during DSS-induction of colitis. FIG. 1H is a diagram showing that IL-17-containing colitic serum induces acute anemia in SIRPα^−/− mice. Serum samples collected from healthy (Ctl.) and colitic WT mice (2% DSS, 10 d) were administered to healthy SIRPα^−/− mice (i.v., 3×, arrows) with or without an anti-IL-17 antibody. FIGS. 1I and 1J are illustrative graphs showing that IL-17 directly induces acute anemia and splenomegaly in SIRPα^−/− mice and Cd47^−/− mice. Healthy mice were given recombinant IL-17 (10 μg/kg, i.v.) on days 1 and 3 (arrows, FIG. 1J); anemia and splenomegaly were analyzed on day 5 (FIG. 1I) or in a time course manner (FIG. 1J). FIG. 1K includes diagrams showing that acute anemia and splenomegaly in SIRPα^−/− and Cd47^−/− mice under zymosan-peritonitis (3×, every other day), IL-6 administration ([…], i.v.), LPS (0.25 mg/kg, i.p.), and CFA (1×, s.c.) administrations. Error bars are ±SEM **P<0.01, ***P<0.001 vs. control or the beginning time point. Data presented in each panel represent at least three independent experiments with n≥4, if applicable.
Hemoglobin assay: To assay blood hemoglobin, 10 μl of whole blood were obtained from the tail vein followed by lysis in 1 ml distilled water. After centrifugation (13,000 rpm, 30 min), the hemoglobin-containing supernatants were collected and measured for the optical density at the wavelength of 540 nm.
Animal inflammation models: To induce peritonitis, mice (6-8 wk, 20-22 g) were intraperitoneally injected with 0.5 mg zymosan A (Sigma) in 0.5 ml sterile PBS followed by euthanasia at 2, 4, 6 and 8 hours. […] The colitic condition was then assessed by observing diarrhea, measuring body weight loss, increases of inflammatory cytokines, the shortage of the large intestine and intestinal tissue analyses (after euthanasia). […]

Assay [3] concerns splenic macrophages, PEMs and BMDMs. The assay can be described thus: Ex vivo macrophage phagocytosis toward RBCs and other self-cells after activation. The format is cell-based, mouse. The settings on record: PEM; lack of the CD47-SIRPα-mediated inhibition. How it is done:
FIGS. 3A-3H include data related to our experiments assaying macrophage phagocytosis ex vivo. FIGS. 3A and 3B show macrophage phagocytosis of RBCs. Freshly isolated splenic macrophages (MØ) and peritoneal macrophages (PEM) and in vitro-derived BMDM (bone marrow-derived macrophages) were tested for phagocytosis toward CFSE-labeled Cd47^+ or Cd47^− RBCs. […] FIGS. 3F and 3G illustrate LPS and IL-17-activated PEM phagocytosis toward splenocytes (FIG. 3F), B16, and EL4 (FIG. 3G). Error bars are ±SEM. **P<0.01, ***P<0.001 vs. no treatment controls. […] PEM lavaged without (ctl.) or with Brewer thioglycollate (3%, i.p.) elicitation was tested. Error bars are ±SEM. ***P<0.001 vs. control PEM. Data presented in each panel represent at least three independent experiments with n≥4, if applicable.
FIGS. 4A-4E include data related to our experiments on macrophage phagocytic plasticity. FIG. 4A is a panel of illustrative line graphs showing that IL-10 inhibits macrophage phagocytosis toward “self.” PEMs were treated with LPS and activating cytokines along with various concentrations of IL-10 before testing their ability to phagocytose RBCs. FIG. 4B illustrates the phagocytic plasticity of WT red pulp macrophages. […] Treatments of cultured macrophages with LPS and IL-17 re-elicited their phagocytosis toward RBCs. […] Error bars are ±SEM. ***P<0.001 vs. freshly isolated splenic macrophages. FIG. 4D includes microscopic images of RBC phagocytosis by LPS- and IL-17-treated splenic macrophages. […] WT PEMs treated with LPS or IL-17 were further treated with Cd47^+ RBCs or Cd47-AP (10 min, 37° C.) followed by cell lysis, SIRPα immunoprecipitation, and WB detection of SIRPα phosphorylation (SIRPα^pY) and SHP-1 association. Data presented in each panel represent at least three independent experiments with n≥4, if applicable.
Ex vivo macrophage phagocytosis: Mouse spleens were harvested and minced in cold HBSS followed by passing through nylon meshes. The spleen cells in suspensions were collected by centrifugation followed by washing. After lysis of RBC, splenocytes were plated in cell culture dishes in DMEM with 10% FBS and cultured for 2 h followed by removal of non-adherent cells. The adherent cells, ˜70% being macrophages as determined by anti-F4/80 staining, were tested for phagocytosis. For phagocytosis of RBC or other tissue cells, targeted cells were labeled with CFSE prior to addition into the macrophage-containing wells. Macrophages and target cells, at a ratio of 1:5-10 for RBC or 1:1-2 for other cells, were co-incubated for 30 min at 37° C. followed by gently washing. Macrophage phagocytosis of target cells was then analyzed by fluorescence microscopy and/or by FACS. To better recognize macrophages, macrophages in wells were labeled with an anti-F4/80 or an anti-CD11b antibody. Alternatively, the freshly isolated splenocytes in suspension were incubated with CFSE-labeled RBC and other phagocytic targets for 30 min at 37° C. Macrophage phagocytosis was then determined by FACS after labeling macrophages with anti-F4/80. To test phagocytosis of apoptotic cells, B16 cells were irradiated by UV for 150 seconds at 50 J/m^2 strength. Apoptosis was analyzed at 2, 4, 6, 8 and 18 h post UV irradiation by labeling of the cells with anti-phosphatidylserine (PS) antibody (data not shown) or FITC-conjugated annexin V (data not shown). Cells that were confirmed to be apoptotic were trypsinized, labeled with CFSE, and then co-incubated with macrophages for 30 min at 37° C. After gentle washing, phagocytosis was analyzed by fluorescence microscopy and/or FACS. To test phagocytosis of bacteria and the fungal product zymosan, AlexaFluor-conjugated E.coli strain […] (2 μl suspension, ˜2 μg) or zymosan bioparticles (1 μl suspension, ˜2 μg) (both from Invitrogen) were incubated with macrophages for 30 min followed by washing and analyses. Similar procedures were performed to test phagocytosis of macrophages from various sources. […]

As for `CCCCCCC1CCCC1=NNC(N)=S` (centres unmarked) [BLT1], the “LPS-induced PEM phagocytosis toward RBCs” value in assay [1] was “failed to affect”.

Turning to heparin, the “LPS-induced PEM phagocytosis toward RBCs” value in assay [1] is on record as “failed to affect”.

In the case of laminarin, the “LPS-induced PEM phagocytosis toward RBCs” value in assay [1] is reported as “failed to affect”.

B1: IL-6: recombinant murine cytokine, PeproTech (protein, UniProt P08505 25-211, looked up)
Interleukin-6: FPTSQVRRGDFTEDTTPNRPVYTTSQVGGLITHVLWEIVEMRKELCNGNSDCMNNDDALAENNLKLPEIQRNDGCYQTGYNQEICLLKISSGLLEYHSYLEYMKNNLKDNKKDKARVLQRDTETLIHIFNQEVKDLHKIVLPTPISNALLTDKLESQKEWLRTKTIQFILKSLEEFLKVTLRSTRQT
Consider B1, for which, in assay [2], the anemia and splenomegaly result was “induced the same result”. The “ability to induce macrophage phagocytosis toward self” value in assay [3] is on record as “have the ability to induce macrophage phagocytosis toward self”.
